Results: patent publication US20180071281A1, “TREATING CHRONIC RHINOSINUSITIS” (Gerbe Labs Inc., priority 2016, published 2018)

How the values were obtained:
[1] = cited from earlier work; for systemic absorption: used topically
S. aureus = assay: Culture from Patient 7, sensitivity of bacteria; assay type: cell-based; conditions: Patient 7 culture
From the text: The patient underwent the standard workup for CRS, sleep disorder, and nasal obstruction, plus our diagnostic skin test and sinus CT scan.

chronic rhinosinusitis = assay: Case studies: patients with chronic rhinosinusitis treated with nebulized formulation; assay type: in vivo, human; conditions: particularly in combination with the compositions and formulations; vancomycin in cases where MRSA is present
From the text: In all of the following studies, the skin testing of Example 1 was used to identify the inhalant antigen or antigens responsible for triggering systemic inflammatory symptoms and the localized inflammatory sinus symptoms. The chronic rhinosinusitis of the patients was all successfully treated. Moreover, the patients also experienced resolution of systemic inflammatory symptoms.
Each of the patients avoided additional exposure to the fungal spores that were identified by the skin test. The patients ostia was dilated, and the formulation was administered with a nebulizer. Additionally, systemic anti-fungal medication directed toward the specific fungi was administered for 4-6 weeks, followed by intermittent nebulization with mometasone and 2% mupirocin powder, which has both anti-fungal and anti-bacterial properties. These treatments were administered every other day to every third day for several months with C-reactive protein (CRP} levels checked every 4-6 weeks to monitor change.
Patient 1 is a retired nurse who presented with chronic fatigue, chronic headaches, facial pain, and a sleep disorder characterized by Rapid Eye Movement (REM) sleep deprivation. The patient was a two pack/day smoker. […] The patient was treated with a formulation of 125 mg tobramycin, […]

[2] = tested on: gram negative and gram positive organisms; conditions: cited from earlier work

SMILES	safety ([1]; topical, nasal cavity and sinuses, approved for children under the age of 3)	systemic absorption [1]	sensitivity of cultured S. aureus (S. aureus)	oral absorption ([1]; orally)	effectiveness of the antibiotic (chronic rhinosinusitis)	activity against gram negative and gram positive organisms [2]
C[C@@H]1C[C@H]2[C@@H]3CCC4=CC(=O)C=C[C@]4(C)[C@@]3(Cl)[C@@H](O)C[C@]2(C)[C@@]1(OC(=O)c1ccco1)C(=O)CCl [Mometasone furoate]	very safe	very little systemic absorption				
NC[C@H]1O[C@H](O[C@H]2[C@H](O)[C@@H](O[C@H]3O[C@H](CO)[C@@H](O)[C@H](N)[C@H]3O)[C@H](N)C[C@@H]2N)[C@H](N)C[C@@H]1O [tobramycin]		not absorbed systemically	sensitive	very, very poorly absorbed	highly effective	excellent activity
CN[C@H](CC(C)C)C(=O)N[C@H]1C(=O)N[C@@H](CC(N)=O)C(=O)N[C@H]2C(=O)N[C@H]3C(=O)N[C@H](C(=O)N[C@H](C(=O)O)c4cc(O)cc(O)c4-c4cc3ccc4O)[C@H](O)c3ccc(c(Cl)c3)Oc3cc2cc(c3O[C@@H]2O[C@H](CO)[C@@H](O)[C@H](O)[C@H]2O[C@H]2C[C@](C)(N)[C@H](O)[C@H](C)O2)Oc2ccc(cc2Cl)[C@H]1O [vancomycin]					highly effective	
